Experiments:
[1] = target: T1, "5-HT1 -like" receptor (dog isolated saphenous vein strip) (Canis lupus familiaris, UniProt P79250); experiment: contraction of isolated dog saphenous vein strip ("5-HT1 -like" receptor agonist activity); type: cell-based; details: for EC50: concentration causing 50% of the maximum contraction effected by the compound; for RELATIVE POTENCY EC50 (compound)/EC50 (5-HT): ratio to 5-HT (higher = less potent)
T1 construct: on dog isolated saphenous vein strip; from tissue; host or cells: dog isolated saphenous vein strip
T1 sequence (P79250 whole entry): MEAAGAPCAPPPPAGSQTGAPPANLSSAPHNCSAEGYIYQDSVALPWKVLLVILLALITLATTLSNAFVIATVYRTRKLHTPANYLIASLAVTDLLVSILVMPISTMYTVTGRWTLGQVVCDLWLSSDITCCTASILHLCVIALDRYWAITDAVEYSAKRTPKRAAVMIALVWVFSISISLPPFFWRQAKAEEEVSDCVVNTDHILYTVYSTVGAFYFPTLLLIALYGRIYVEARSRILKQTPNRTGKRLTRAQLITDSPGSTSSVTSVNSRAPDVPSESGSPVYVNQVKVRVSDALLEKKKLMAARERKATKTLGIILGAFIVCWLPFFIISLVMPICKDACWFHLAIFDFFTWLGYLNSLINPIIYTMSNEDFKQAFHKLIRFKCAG
Source text: The following Table illustrates the in vitro activities for a range of the compounds of the invention on dog isolated saphenous vein strip. EC50 represents the concentration of compound which causes 50% of the maximum contraction effected by it.

[2] = target: T1, "5-HT1 -like" receptor (dog isolated saphenous vein strip); details: antagonism of the agonist-induced contraction; cited from earlier work

Row | Structure (SMILES) | EC50 [1] [nM] | RELATIVE POTENCY EC50 (compound)/EC50 (5-HT) [1] | block of contraction of dog saphenous vein strip [2]
1 | CC(C)(O)CCc1ccc2[nH]cc(C[C@H]3CCCN3CC3CCN(Cc4ccccc4)C3)c2c1 (stereo partly drawn) [Example 1] | 620 | 11.0 | 
2 | CC(C)(O)CCc1ccc2[nH]cc(C[C@H]3CCCN3C[C@H]3CCCN3S(C)(=O)=O)c2c1 [Example 5, 5-(3-Hydroxy-3-methyl-1-butyl)-3-[N-(N-methane-sulphonyl-2(R)-pyrrolidinylmethyl)-2(R)-pyrrolidinylmethyl]-1H-indole] | 180 | 2.4 | 
3 | CSc1ccc2c(c1)C(N1CCN(C)CC1)Cc1ccccc1S2 (stereo not drawn) [methiothepin] |  |  | This effect can be blocked by methiothepin

Continued, in another order:

Row | EC50 [1] [nM] | RELATIVE POTENCY EC50 (compound)/EC50 (5-HT) [1] | Structure (SMILES) | block of contraction of dog saphenous vein strip [2]
4 | 3000 | 71 | CC(C)(O)CCc1ccc2[nH]cc(C[C@H]3CCCN3CC3CCCNC3=O)c2c1 (single isomer, unassigned) [Example 9A] | 
5 | 1800 | 78 | CC(C)(O)CCc1ccc2[nH]cc(C[C@H]3CCCN3CC3CCCNC3=O)c2c1 (single isomer, unassigned) [Example 9B] | 
